Source: US11034654B2, “2,3-dihydroisoindole-1-carboxamides useful as ROR-gamma modulators” (AstraZeneca AB, priority 2017, dated 2021)

Legend:
[1] = target: T1, RORγ ligand binding domain (Homo sapiens, UniProt P51449); experiment: RORγ radioligand competition binding assay (SPA); conditions: competition with tritiated 2-(4-(ethylsulfonyl)phenyl)-N-(4-(2-(methoxymethyl)phenyl)thiophen-2-yl)acetamide (25 nM), hRORγ LBD
Procedure, shortened: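 SPA competition on E. coli-expressed N-6×HN-Avi-GST-TCS-hRORγ LBD (S258-K518), 4 nM on YOx glutathione beads, in 20 mM Tris, 150 mM NaCl, 10% glycerol, 0.25% CHAPS, 1 mM TCEP. Compound pre-incubation 1 h RT, then 25 nM tritiated tracer for 16 h. IC50 normalized to vehicle/reference controls; Ki = IC50/(1+[L]/Kd), Kd 17 nmol/L.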

[2] = target: T1, RORγ ligand binding domain; experiment: RORγ co-factor recruitment assay (FRET); type: biochemical; design: made in house; host or cells: E. coli BL21DE3 Star; conditions: inhibition of recruitment of SRC-1 peptide (NCOA1_677-700) to hRORγ LBD, HTRF read-out
Procedure, shortened: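 Inverse-agonist TR-FRET measuring biotinylated SRC-1 peptide (NCOA1 677-700, 160 nM in pre-mix) recruitment to E. coli-expressed biotinylated HN-Avi-MBP-TCS-hRORγ LBD (258-518; 100 nM in pre-mix), with Eu-streptavidin and streptavidin-APC, in MOPS pH 7.4 buffer, 1 h at rt. 665/612 nm ratio normalised to vehicle and reference control; IC50 from curve fit.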

[3] = test system: human TH17 cells; experiment: Inhibition of IL-17 release from human TH17 cells; type: cell-based; conditions: 96 h; isolated human TH17 cells cultured 4 days, IL-17A in supernatant by HTRF; read-out: pIC50 IL-17 release (converted)
Excerpt: Inhibition of IL-17 Release from Human TH17 Cells
This test is designed to screen compounds for their inhibitory effect on the release of IL-17 from isolated and cultured human TH17 cells.
Peripheral blood mononuclear cells (PBMC) were isolated from heparin treated human whole blood from healthy donors by density gradient centrifugation. TH17 cells (CD4+CXCR3−CCR6+) were enriched using a human TH17 Cell Enrichment Kit (Stemcell Technologies) according to the manufacturer's protocol. The isolated TH17 cells were activated with aCD3aCD28 beads (MACS Miltenyi) and cultured in X-Vivo15 medium (Lonza) supplemented with L-glutamine, β-mercaptoethanol and a cytokine cocktail consisting of; IL-2, IL-23, IL-1β, IL-6, TGF-β. Cells were seeded at 8000 cells/well in a 384-plate (Corning, #3707) in the presence of compounds or DMSO and cultured for 4 days (37° C., 5% CO2). On day 4 supernatants were collected and IL-17A was measured using a Human IL-17 HTRF Assay kit (Cisbio Bioassays) according to the manufacturer's protocol. The IC50 values for the tested compounds was calculated using Genedata Screener® software (Genedata) using the following calculation method; Compound % effect=100*[(X−min)/(max−min)], where X represents the normalized value for the compound based on the Min (DMSO) and Max (compound 3-(1,3-benzodioxol-5-yl)-1-(3,5-dimethylpiperidin-1-yl)-3-(2-hydroxy-4,6-dimethoxyphenyl)propan-1-one at 10 μM, described in J. R. Hu et al. ACS Med. Chem. Lett. 2013, 4, 79-84) inhibition controls. Results

Row | Compound | IC50 [1] [nM] | IC50 [2] [nM] | IC50 [3] [nM]
1 | CC(=O)N1Cc2cc(S(C)(=O)=O)ccc2C1C(=O)Nc1ccc(C(CC(=O)NC(C)(C)C)(C(F)(F)F)C(F)(F)F)cc1 (stereo not drawn) [Example 43, 2-Acetyl-N-{4-[4-(tert-butylamino)-1,1,1-trifluoro-4-oxo-2-(trifluoromethyl)butan-2-yl]phenyl}-5-(methylsulfonyl)-2,3-dihydro-1H-isoindole-1-carboxamide] | 794 | 158 | 251
2 | CC(=O)NCCC(c1ccc(NC(=O)C2c3ccc(S(C)(=O)=O)cc3CN2C(C)=O)cc1)(C(F)(F)F)C(F)(F)F (stereo not drawn) [Example 45, 2-Acetyl-N-{4-[4-(acetylamino)-1,1,1-trifluoro-2-(trifluoromethyl)butan-2-yl]phenyl}-5-(methylsulfonyl)-2,3-dihydro-1H-isoindole-1-carboxamide] | 794 | 200 | 3160
